Source: patent US11554171B2, “Compounds and methods for the targeted degradation of bromodomain-containing proteins” (Arvinas Operations, Inc., priority 2015, dated 2023)

Test system: c-myc in 22RV-1 cells
Assay: Human c-myc ELISA assay
Type: cell-based
Conditions: Homo sapiens; for Emax: 22Rv1, 18 h, read-out: Degradation of BRD4: Maximum inhibition (%) c-Myc ELISA in 22RV1 cells; for DC50: 22Rv1, read-out: Degradation of BRD4: DC50 (uM) c-Myc ELISA in 22RV1 cells
Outline: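 c-myc levels measured by ELISA in RIPA lysates of 22RV-1 cells, calibrated with a 333-0 pg/ml standard curve. Lysates came from cells exposed for 18 h to an 8-point, 1:3 dose series starting at 300 nM or 1 μM final in 0.1% DMSO. Suppression potency given as DC50.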

SMILES | DC50 [µM] | Emax [%]
Cc1ncoc1-c1ccc(CNC(=O)[C@@H]2C[C@@H](O)CN2C(=O)[C@@H](NC(=O)COc2ccc(O[C@H]3C[C@@H](NC(=O)C[C@@H]4N=C(c5ccc(Cl)cc5)c5c(sc(C)c5C)-n5c(C)nnc54)C3)nc2)C(C)(C)C)cc1 [Example 258] | 0.01 to 0.1 | 87.5
Cc1sc2c(c1C)C(c1ccc(Cl)cc1)=N[C@@H](CC(=O)N[C@H]1C[C@@H](Oc3ccc(OCC(=O)N[C@H](C(=O)N4C[C@H](O)C[C@H]4C(=O)N[C@@H](C)c4ccc(-n5ccnc5C)cc4)C(C)(C)C)cn3)C1)c1nnc(C)n1-2 [Example 259] | 0.1 to 1 | 65.7
Cc1sc2c(c1C)C(c1ccc(Cl)cc1)=N[C@@H](CC(=O)N[C@H]1C[C@@H](Oc3ccc(OCC(=O)N[C@H](C(=O)N4C[C@H](O)C[C@H]4C(=O)N[C@@H](C)c4ccc(-c5nccn5C)cc4)C(C)(C)C)cn3)C1)c1nnc(C)n1-2 [Example 260] | > 1 | 13
Cc1sc2c(c1C)C(c1ccc(Cl)cc1)=N[C@@H](CC(=O)N[C@H]1C[C@@H](Oc3ccc4oc(C(=O)N[C@H](C(=O)N5C[C@H](O)C[C@H]5C(=O)N[C@@H](C)c5ccc(-n6ccnc6C)cc5)C(C)(C)C)cc4c3)C1)c1nnc(C)n1-2 [Example 261] | 0.01 to 0.1 | 92.7
Cc1sc2c(c1C)C(c1ccc(Cl)cc1)=N[C@@H](CC(=O)N[C@H]1C[C@@H](Oc3ccc4oc(C(=O)N[C@H](C(=O)N5C[C@H](O)C[C@H]5C(=O)N[C@@H](C)c5ccc(-c6nccn6C)cc5)C(C)(C)C)cc4c3)C1)c1nnc(C)n1-2 [Example 262] | 0.1 to 1 | 55.5
Cc1ncsc1-c1ccc([C@H](C)NC(=O)[C@@H]2C[C@@H](O)CN2C(=O)[C@@H](C(C)C)n2cc(-c3ccnc(N4CC[C@H](NC(=O)C[C@@H]5N=C(c6ccc(Cl)cc6)c6c(sc(C)c6C)-n6c(C)nnc65)C4)c3)cn2)cc1 [Example 263] | > 1 | 23.5
Cc1ncsc1-c1ccc([C@H](C)NC(=O)[C@@H]2C[C@@H](O)CN2C(=O)[C@H](C(C)C)n2cc(-c3ccnc(N4CC[C@H](NC(=O)C[C@@H]5N=C(c6ccc(Cl)cc6)c6c(sc(C)c6C)-n6c(C)nnc65)C4)c3)cn2)cc1 [Example 264] | < 0.01 | 97
Cc1ncsc1-c1ccc([C@H](C)NC(=O)[C@@H]2C[C@@H](O)CN2C(=O)[C@H](C(C)C)n2cc(-c3ccc(N4CC(NC(=O)C[C@@H]5N=C(c6ccc(Cl)cc6)c6c(sc(C)c6C)-n6c(C)nnc65)C4)nc3)cn2)cc1 [Example 265] | 0.01 to 0.1 | 95.9
Cc1ncsc1-c1ccc([C@H](C)NC(=O)[C@@H]2C[C@@H](O)CN2C(=O)[C@H](C(C)C)n2cc(-c3ccnc(N4CC[C@@H](NC(=O)C[C@@H]5N=C(c6ccc(Cl)cc6)c6c(sc(C)c6C)-n6c(C)nnc65)C4)c3)cn2)cc1 [Example 266] | < 0.01 | 97
Cc1ncsc1-c1ccc([C@H](C)NC(=O)[C@@H]2C[C@@H](O)CN2C(=O)[C@@H](C(C)C)n2cc(-c3ccnc(N4CC[C@@H](NC(=O)C[C@@H]5N=C(c6ccc(Cl)cc6)c6c(sc(C)c6C)-n6c(C)nnc65)C4)c3)cn2)cc1 [Example 267] | > 1 | 51.4
Cc1ncsc1-c1ccc([C@H](C)NC(=O)[C@@H]2C[C@@H](O)CN2C(=O)[C@@H](C(C)C)n2cc(-c3ccc(O[C@H]4C[C@H](NC(=O)C[C@@H]5N=C(c6ccc(Cl)cc6)c6c(sc(C)c6C)-n6c(C)nnc65)C4)nc3)cn2)cc1 [Example 268] | 0.01 to 0.1 | 98
Cc1ncsc1-c1ccc([C@H](C)NC(=O)[C@@H]2C[C@@H](O)CN2C(=O)[C@H](C(C)C)n2cc(-c3ccc(O[C@H]4C[C@H](NC(=O)C[C@@H]5N=C(c6ccc(Cl)cc6)c6c(sc(C)c6C)-n6c(C)nnc65)C4)nc3)cn2)cc1 [Example 269] | < 0.01 | 96.4
Cc1ncsc1-c1ccc([C@H](C)NC(=O)[C@@H]2C[C@@H](O)CN2C(=O)[C@@H](NC(=O)Cc2ccc(O[C@H]3C[C@@H](NC(=O)C[C@@H]4N=C(c5ccc(Cl)cc5)c5c(sc(C)c5C)-n5c(C)nnc54)C3)nc2)C(C)(C)C)cc1 [Example 270, (2S,4R)-1-[(2S)-3,3-dimethyl-2-(2-{6-[(1,3cis)-3-{2-[(9S)-7-(4-chlorophenyl)-4,5,13-trimethyl-3-thia-1,8,11,12-tetraazatricyclo[8.3.0.0^2,^6]trideca-2(6),4,7,10,12-pentaen-9-yl]acetamido}cyclobutoxy]pyridin-3-yl}acetamido)butanoyl]-4-hydroxy-N-[(1S)-1-[4-(4-methyl-1,3-thiazol-5-yl)phenyl]ethyl]pyrrolidine-2-carboxamide] | < 0.01 | 92.2
Cc1noc(-c2ccc([C@H](C)NC(=O)[C@@H]3C[C@@H](O)CN3C(=O)[C@@H](NC(=O)COc3ccc(O[C@H]4C[C@@H](NC(=O)C[C@@H]5N=C(c6ccc(Cl)cc6)c6c(sc(C)c6C)-n6c(C)nnc65)C4)nc3)C(C)(C)C)cc2)n1 [Example 271] | < 0.01 | 96.4
Cc1sc2c(c1C)C(c1ccc(Cl)cc1)=N[C@@H](CC(=O)N[C@H]1C[C@H](Oc3ccc(CC(=O)N[C@H](C(=O)N4C[C@H](O)C[C@H]4C(=O)N[C@@H](C)c4ccc(-n5ccnc5C)cc4)C(C)(C)C)cc3)C1)c1nnc(C)n1-2 [Example 272] | 0.01 to 0.1 | 95.9
Cc1sc2c(c1C)C(c1ccc(Cl)cc1)=N[C@@H](CC(=O)N[C@H]1C[C@H](Oc3ccc(CC(=O)N[C@H](C(=O)N4C[C@H](O)C[C@H]4C(=O)N[C@@H](C)c4ccc(-c5nccn5C)cc4)C(C)(C)C)cc3)C1)c1nnc(C)n1-2 [Example 273] | > 1 | < 5
Cc1ncoc1-c1ccc([C@H](C)NC(=O)[C@@H]2C[C@@H](O)CN2C(=O)[C@@H](NC(=O)Cc2ccc(O[C@H]3C[C@H](NC(=O)C[C@@H]4N=C(c5ccc(Cl)cc5)c5c(sc(C)c5C)-n5c(C)nnc54)C3)cc2)C(C)(C)C)cc1 [Example 274] | < 0.01 | 95.4
Cc1noc(-c2ccc([C@H](C)NC(=O)[C@@H]3C[C@@H](O)CN3C(=O)[C@@H](NC(=O)Cc3ccc(O[C@H]4C[C@H](NC(=O)C[C@@H]5N=C(c6ccc(Cl)cc6)c6c(sc(C)c6C)-n6c(C)nnc65)C4)cc3)C(C)(C)C)cc2)n1 [Example 275] | 0.1 to 1 | 50.1
Cc1ncoc1-c1ccc([C@H](C)NC(=O)[C@@H]2C[C@@H](O)CN2C(=O)[C@@H](C(C)C)n2cc(-c3ccnc(O[C@H]4C[C@@H](NC(=O)C[C@@H]5N=C(c6ccc(Cl)cc6)c6c(sc(C)c6C)-n6c(C)nnc65)C4)c3)cn2)cc1 [Example 276] | > 1 | 36

Now from value to compound, other results behind:

DC50 [µM] | SMILES | Emax [%]
0.01 to 0.1 | Cc1ncoc1-c1ccc([C@H](C)NC(=O)[C@@H]2C[C@@H](O)CN2C(=O)[C@H](C(C)C)n2cc(-c3ccnc(O[C@H]4C[C@@H](NC(=O)C[C@@H]5N=C(c6ccc(Cl)cc6)c6c(sc(C)c6C)-n6c(C)nnc65)C4)c3)cn2)cc1 [Example 277] | 94
< 0.01 | Cc1ncoc1-c1ccc([C@H](C)NC(=O)[C@@H]2C[C@@H](O)CN2C(=O)[C@@H](NC(=O)COc2ccc(O[C@H]3C[C@@H](NC(=O)C[C@@H]4N=C(c5ccc(Cl)cc5)c5c(sc(C)c5C)-n5c(C)nnc54)C3)nc2)C(C)(C)C)cc1 [Example 278] | 95.4
0.1 to 1 | Cc1sc2c(c1C)C(c1ccc(Cl)cc1)=NC(CC(=O)N[C@H]1C[C@H](Oc3ccc(CC(=O)N[C@H](C(=O)N4C[C@H](O)C[C@H]4C(=O)N[C@@H](C)c4ccc(C#N)cc4)C(C)(C)C)cc3)C1)c1nnc(C)n1-2 (stereo partly drawn) [Example 279] | 65.4
0.01 to 0.1 | Cc1ncsc1-c1ccc([C@H](C)NC(=O)[C@@H]2C[C@@H](O)CN2C(=O)[C@@H](NC(=O)Cc2ccc(O[C@H]3C[C@H](NC(=O)C[C@@H]4N=C(c5ccc(Cl)cc5)c5c(sc(C)c5C)-n5c(C)nnc54)C3)cc2)C(C)C)cc1 [Example 280] | 95.4
0.01 to 0.1 | Cc1sc2c(c1C)C(c1ccc(Cl)cc1)=N[C@@H](CC(=O)N[C@H]1C[C@H](Oc3ccc(CC(=O)N[C@H](C(=O)N4C[C@H](O)C[C@H]4C(=O)N[C@@H](C)c4ccc(-c5ncon5)cc4)C(C)(C)C)cc3)C1)c1nnc(C)n1-2 [Example 281] | 91.4
> 1 | Cc1sc2c(c1C)C(c1ccc(Cl)cc1)=N[C@@H](CC(=O)N[C@H]1C[C@H](Oc3ccc(CC(=O)N[C@H](C(=O)N4C[C@H](O)C[C@H]4C(=O)N[C@@H](C)c4ccc(C(=O)N5CCC5)cc4)C(C)(C)C)cc3)C1)c1nnc(C)n1-2 [Example 282] | 25.4
0.01 to 0.1 | Cc1ncsc1-c1ccc([C@H](C)NC(=O)[C@@H]2C[C@@H](O)CN2C(=O)[C@@H](C(C)C)n2cc(-c3cnc(O[C@H]4C[C@H](NC(=O)C[C@@H]5N=C(c6ccc(Cl)cc6)c6c(sc(C)c6C)-n6c(C)nnc65)C4)cn3)cn2)cc1 [Example 283] | 89.5
< 0.01 | Cc1ncsc1-c1ccc([C@H](C)NC(=O)[C@@H]2C[C@@H](O)CN2C(=O)[C@H](C(C)C)n2cc(-c3cnc(O[C@H]4C[C@H](NC(=O)C[C@@H]5N=C(c6ccc(Cl)cc6)c6c(sc(C)c6C)-n6c(C)nnc65)C4)cn3)cn2)cc1 [Example 284] | 93.4
> 1 | Cc1ncoc1-c1ccc([C@H](C)NC(=O)[C@@H]2C[C@@H](O)CN2C(=O)[C@@H](C(C)C)n2cc(-c3cccc(O[C@H]4C[C@@H](NC(=O)C[C@@H]5N=C(c6ccc(Cl)cc6)c6c(sc(C)c6C)-n6c(C)nnc65)C4)c3)cn2)cc1 [Example 285] | 44.4
0.01 to 0.1 | Cc1ncoc1-c1ccc([C@H](C)NC(=O)[C@@H]2C[C@@H](O)CN2C(=O)C(C(C)C)n2cc(-c3cccc(O[C@H]4C[C@@H](NC(=O)C[C@@H]5N=C(c6ccc(Cl)cc6)c6c(sc(C)c6C)-n6c(C)nnc65)C4)c3)cn2)cc1 (stereo partly drawn) [Example 286] | 93
> 1 | Cc1sc2c(c1C)C(c1ccc(Cl)cc1)=N[C@@H](CC(=O)N[C@H]1C[C@@H](Oc3cc(-c4cnn([C@@H](C(=O)N5C[C@H](O)C[C@H]5C(=O)N[C@@H](C)c5ccc(-n6ccnc6C)cc5)C(C)C)c4)ccn3)C1)c1nnc(C)n1-2 [Example 287] | 17.3
